From ChEMBL document CHEMBL5370559, “Plasmodium-Resistant Indole Diterpenoid Biosynthesis Gene Cluster Derived from Aspergillus oryzae Was Activated by Exogenous P450 Gene Ast B” (J Nat Prod, 2023)

What was measured:
[1] = tested on: Plasmodium falciparum; assay: Antiplasmodial activity against erythrocytic stage chloroquine resistant Plasmodium falciparum dD2 assessed as parasitic growth inhibition measured after 3 days by HRP2-ELISA assay; format: functional, organism-based; details: dD2, 72 h
[2] = tested on: Plasmodium falciparum; assay: Antiplasmodial activity against erythrocytic stage chloroquine sensitive Plasmodium falciparum 3D7 assessed as parasitic growth inhibition measured after 3 days by HRP2-ELISA assay; format: functional, organism-based; details: 3D7, 72 h

Structure (SMILES) | IC50 [1] [µM] | IC50 [2] [µM]
CC(C)(O)[C@H]1O[C@@]2(O)CC[C@@]3(C)[C@@H](CC[C@H]4Cc5c([nH]c6ccccc56)[C@@]43C)C2=CC1=O | 153 | 1.1
CC(C)C1=C(c2c[nH]c3ccccc23)[C@@H]2[C@H](C)C[C@@H](O)[C@@]3(C)[C@H](C)CC[C@@H](O)[C@@]23CC1 | – | 52
C[C@H](CO)C1=C(c2c[nH]c3ccccc23)[C@@H]2[C@H](C)C[C@@H](O)[C@@]3(C)[C@H](C)CC[C@@H](O)[C@@]23CC1 | – | 26
CC1=CC[C@@H](O)[C@@]23CC=C(C(C)C)[C@H](c4c[nH]c5ccccc45)[C@@H]2[C@H](C)CC[C@@]13C | – | 20
C=CC(C)(C)c1cccc2[nH]c3c(c12)C[C@@H]1CC[C@H]2C4=CC(=O)[C@@H](C(C)(C)O)O[C@H]4CC[C@]2(C)[C@@]31C | 41 | 0.84
CC(C)C1=CC[C@]23[C@@H]([C@H](C)CC[C@@]2(C)[C@H](C)CC[C@H]3O)[C@H]1c1c[nH]c2ccccc12 | – | 31
C[C@@H]1CC[C@@]2(C)[C@H](C)CC[C@@H](O)[C@]23CC[C@@H](C(C)(C)O)[C@H](c2c[nH]c4ccccc24)[C@H]13 | – | > 200
Cc1cc2[nH]c3ccccc3c2c2c1CC[C@@]13[C@H](O)CC[C@@H](C)[C@]1(C)[C@H](O)C[C@@H](C)[C@@H]23 | – | 49
CC(C)C1=C(c2c[nH]c3ccccc23)[C@@H]2[C@H](C)CC[C@@]3(C)[C@H](C)CC[C@@H](O)[C@@]23CC1 | > 200 | 2.8
C=CC(C)(C)c1cccc2[nH]c3c(c12)C[C@@H]1CC(=O)[C@@]2(O)C4=CC(=O)[C@@H](C(C)(C)O)O[C@]4(O)CC[C@]2(C)[C@@]31C | – | 57
C=CC(C)(C)c1ccc2[nH]c3c(c2c1)C[C@@H]1CC[C@H]2C4=CC(=O)[C@@H](C(C)(C)O)O[C@H]4CC[C@]2(C)[C@@]31C | 96 | 1.3
C=CC(C)(C)c1cccc2[nH]c3c(c12)C[C@@H]1CC[C@@]2(O)C4=CC(=O)[C@@H]5O[C@@]4(CC[C@]2(C)[C@@]31C)OC5(C)C [AFLATREME] | – | > 200
C[C@@H]1CC[C@H]2[C@@H](C)C(=O)O[C@@H]3O[C@@]4(C)CC[C@@H]1[C@]32OO4 [ARTEMISININ] | 12 | 0.013
CC(C)(O)[C@H]1O[C@H]2CC[C@@]3(C)[C@@H](CC[C@H]4Cc5c([nH]c6ccccc56)[C@@]43C)C2=CC1=O [DEHYDROXYPAXILLINE] | 69 | 0.9
CC(C)=CCC[C@]1(C)[C@@H](O)CC[C@@]2(C)[C@H]1CC[C@H]1Cc3c([nH]c4ccccc34)[C@@]12C [EMINDOLE SB] | 34 | 2.9
CC(C)(O)[C@@H]1CC[C@]2(C)[C@H](CC[C@@]3(C)[C@H]2CC[C@H]2Cc4c([nH]c5ccccc45)[C@@]23C)O1 [PASPALINE] | > 200 | 2.2
